Measured values reported in patent US20230167088A1, “1-PYRAZINYLPYRAZOLYL-3-OXYALKYL ACIDS AND THEIR DERIVATIVES, AND THEIR USE FOR CONTROL OF UNDESIRED PLANT GROWTH” (BAYER AKTIENGESELLSCHAFT, priority 2020, published 2023).

Assays:
DIGSA = test: Herbicidal pre-emergence action 2a (greenhouse pots, visual scoring); assay type: in vivo, Digitaria sanguinalis; conditions: dosage 320 g/ha, visual scoring after about 3 weeks
How it was run: (§1)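 Visual scoring after roughly 3 weeks, as percent effect relative to untreated pots (0% = like control, 100% = dead). Seeds were covered with soil, then the surface received aqueous WP/EC suspension or emulsion (0.5% additive, 600 l/ha) at 320 and/or 80 g/ha.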

harmful plants [1] = test: Herbicidal post-emergence action 1a, summary across species; assay type: in vivo; conditions: Tables A1 to A15 (320 g/ha and/or 80 g/ha)
Description: a) Seeds of monocotyledonous and dicotyledonous weeds and crop plants are placed in sandy loam in plastic or organic plant pots, covered with soil and cultivated in a greenhouse under controlled growth conditions. 2 to 3 weeks after sowing, the test plants are treated at the one-leaf stage. The compounds of the invention, formulated in the form of wettable powders (WP) or as emulsion concentrates (EC), are then sprayed onto the green parts of the plants as aqueous suspension or emulsion with addition of 0.5% additive at a water application rate of 600 1/ha (converted). After the test plants have been kept in the greenhouse under optimum growth conditions for about 3 weeks, the activity of the preparations is rated visually in comparison to untreated controls. For example, 100% activity=the plants have died, 0% activity=like control plants.
Tables A1 to A15 below show the effects of selected compounds of the general formula (I) according to Tables 1 and 2 on various harmful plants and an application rate corresponding to 320 g/ha and/or 80 g/ha, which were obtained by the experimental procedure mentioned above.
For example, compound nos. I-05, I-07, I-08, I-10, I-12, I-16, I-17, I-22, I-36, I-37, I-39 and I-40 in the post-emergence method have very good action (80% to 100% herbicidal activity) against harmful plants such as Alopecurus myosuroides, Amaranthus retroflexus, Avena fatua, Lolium rigidum, Polygonum convolvulus, Setaria viridis, Veronica persica and Viola tricolor at an application rate of 0.32 kg of active substance per hectare.

POAAN = test: Herbicidal pre-emergence action 2b (doubly sown, 1280 g/ha); assay type: in vivo, Poa annua; conditions: doubly sown pots, dosage 1280 g/ha, visual scoring after about 3 weeks
How it was run: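 Read-out: visual percentage damage relative to untreated controls, scored after roughly 3 weeks in the greenhouse, where 100% means plants died and 0% equals control. Seeds were sown two species per pot in sandy loam and covered before the compounds, formulated as WP or EC with 0.5% additive, were sprayed onto the soil at 600 L/ha.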

LOLRI = test: Herbicidal pre-emergence action 2a (greenhouse pots, visual scoring); assay type: in vivo, Lolium rigidum; conditions: dosage 320 g/ha, visual scoring after about 3 weeks vs untreated controls
How it was run: as §1

ALOMY = test: Herbicidal post-emergence action 1a (greenhouse pots, visual rating); assay type: in vivo, Alopecurus myosuroides; conditions: rated visually about 3 weeks after treatment, 100% = plants have died, 0% = like control plants
How it was run: (§2)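 Weeds and crops sown in sandy loam in greenhouse pots were sprayed post-emergence at the one-leaf stage (2–3 weeks after sowing) with WP or EC formulations plus 0.5% additive at 600 l/ha water, 320 and/or 80 g/ha. About 3 weeks later damage was rated visually against untreated controls (0% = no effect, 100% = dead).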

AMARE = test: as above; assay type: in vivo, Amaranthus retroflexus; conditions: visual rating about 3 weeks after treatment
How it was run: as §2

harmful plants [2] = test: Herbicidal pre-emergence action 2a, summary across species; assay type: in vivo; conditions: Tables B1 to B15 (320 g/ha and/or 80 g/ha)
How it was run: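 Pre-emergence greenhouse test: WP or EC formulations sprayed onto soil covering sown weed and crop seeds, 600 l/ha water with 0.5% additive, at 320 g/ha and/or 80 g/ha. Damage scored visually after about 3 weeks as % versus untreated control (100% = plants dead).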

Row | Structure (SMILES) | Pre-emergence action against DIGSA in % (DIGSA) | herbicidal efficacy against harmful plants in the case of post-emergence treatment (in words) (harmful plants [1]) | Pre-emergence action at 1280 g/ha against POAAN in % (POAAN) | Pre-emergence action against LOLRI in % (LOLRI) | Post-emergence action against ALOMY in % (ALOMY; Dosage 80 g/ha) | Post-emergence action against ALOMY in % (ALOMY; Dosage 320 g/ha) | Post-emergence action against AMARE in % (AMARE; dosage 320 g/ha) | herbicidal efficacy against harmful plants in the case of pre-emergence treatment (in words) (harmful plants [2]) | Post-emergence action against AMARE in % (AMARE; dosage 80 g/ha)
1 | COC(=O)[C@@H](C)Oc1nn(-c2cnccn2)c(-c2ccnc(F)c2)c1Br [Example I-34] | 100% | good herbicidal efficacy | 100% | 100% | 80% | 100% | 80% | good herbicidal efficacy | 
2 | COC(=O)C(C)Oc1nn(-c2cnccn2)c(-c2ccnc(F)c2)c1Cl (racemic) [Example I-05] | 100% | good herbicidal efficacy | 100% | 100% | 100% | 100% | 80% | good herbicidal efficacy | 
3 | CCOC(=O)COc1nn(-c2cnccn2)c(-c2ccc(F)nc2)c1Cl [Example I-53] | 100% | good herbicidal efficacy | 100% | 80% |  |  |  | good herbicidal efficacy | 80%
4 | COC(=O)C(C)Oc1nn(-c2cnccn2)c(-c2ccc(F)nc2)c1Br (racemic) [Example I-12] | 100% | good herbicidal efficacy | 100% | 100% | 90% | 90% | 80% | good herbicidal efficacy | 80%
5 | COC(=O)[C@@H](C)Oc1nn(-c2cnccn2)c(-c2ccc(F)nc2)c1Cl [Example I-36] | 100% | good herbicidal efficacy | 100% | 100% |  | 100% | 90% | good herbicidal efficacy | 90%
6 | COC(=O)[C@@H](C)Oc1nn(-c2cnccn2)c(-c2cncc(F)c2)c1Br [Example I-39] | 100% | good herbicidal efficacy | 100% | 100% | 90% | 100% | 80% | good herbicidal efficacy | 
7 | COC(=O)[C@@H](C)Oc1nn(-c2cnccn2)c(-c2ccc(F)c(F)c2)c1Br [Example I-45] | 100% | good herbicidal efficacy | 100% | 90% | 90% | 90% | 90% | good herbicidal efficacy | 
8 | COC(=O)COc1nn(-c2cnccn2)c(-c2ccc(F)nc2)c1Br [Example I-11] | 100% | good herbicidal efficacy | 100% | 100% |  | 100% | 90% | good herbicidal efficacy | 90%
9 | COC(=O)C(C)Oc1nn(-c2cnccn2)c(-c2ccc(F)c(F)c2)c1Br (racemic) [Example I-16] | 100% | good herbicidal efficacy | 100% | 100% | 90% | 100% | 90% | good herbicidal efficacy | 
10 | COC(=O)C(C)Oc1nn(-c2cnccn2)c(-c2cncc(F)c2)c1Br (racemic) [Example I-08] | 100% | good herbicidal efficacy |  | 100% | 100% | 100% | 80% | good herbicidal efficacy | 
11 | CCOC(=O)COc1nn(-c2cnccn2)c(-c2ccccc2)c1Br [Example I-01] | 90% | good herbicidal efficacy | 100% | 80% |  | 90% | 90% | good herbicidal efficacy | 80%
12 | C[C@H](Oc1nn(-c2cnccn2)c(-c2cncc(F)c2)c1Br)C(=O)O [Example I-37] | 100% | good herbicidal efficacy | 100% | 100% | 90% | 100% | 90% | good herbicidal efficacy | 
13 | COC(=O)C(C)Oc1nn(-c2cnccn2)c(-c2ccc(F)c(F)c2)c1C#N (racemic) [Example I-22] | 100% | good herbicidal efficacy | 100% | 100% | 90% | 100% | 90% | good herbicidal efficacy | 90%
